Laboratory results taken from ChEMBL document CHEMBL1201862, “PubChem BioAssay data set” (2004).
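In this assay, cells in 96-well plates receive the compound at five concentrations for 48 hours. Endpoints are linearly interpolated between the surrounding concentrations. At the GI50, growth is halved.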 Active and inactive are the calls of the source. Cut-off read from the data, not from the text of the source: active = GI50 up to about 1.1 µM and inactive = higher.

Assays:
Experiment in all cases: NCI anticancer screen, dose series, 48 h
A549 = test system: A549
UACC-62 = test system: UACC-62
SW-620 = test system: SW-620
SN12C = test system: SN12C
A498 = test system: A498
IGROV-1 = test system: IGROV-1
SK-MEL-2 = test system: SK-MEL-2
KM12 = test system: KM12
PC-3 = test system: PC-3
ACHN = test system: ACHN
SF-539 = test system: SF-539
SK-MEL-28 = test system: SK-MEL-28
NCI-H522 = test system: NCI-H522
786-0 = test system: 786-0
MOLT-4 = test system: MOLT-4
MDA-MB-231 = test system: MDA-MB-231
HCC 2998 = test system: HCC 2998
Hs-578T = test system: Hs-578T
TK-10 = test system: TK-10
HT-29 = test system: HT-29

| SMILES | GI50 (A549) | GI50 (UACC-62) | GI50 (SW-620) | GI50 (SN12C) | GI50 (A498) | GI50 (IGROV-1) | GI50 (SK-MEL-2) | GI50 (KM12) | GI50 (PC-3) | GI50 (ACHN) | GI50 (SF-539) | GI50 (SK-MEL-28) | GI50 (NCI-H522) | GI50 (786-0) | GI50 (MOLT-4) | GI50 (MDA-MB-231) | GI50 (HCC 2998) | GI50 (Hs-578T) | GI50 (TK-10) | GI50 (HT-29) |
| --- | --- | --- | --- | --- | --- | --- | --- | --- | --- | --- | --- | --- | --- | --- | --- | --- | --- | --- | --- | --- |
| Cc1ccc(C2NC(=O)c3ccccc3N2)c(C)c1 (stereo not given) | 5.65 µM (inactive) | 1.26 µM (inactive) | 1.05 µM (active) | 6.9 µM (inactive) | 5.04 µM (inactive) | 4.62 µM (inactive) | 1.77 µM (inactive) | 3.21 µM (inactive) | 1.66 µM (inactive) | 6.82 µM (inactive) | 1.61 µM (inactive) | 6.58 µM (inactive) | 1.88 µM (inactive) | 3.97 µM (inactive) | 0.736 µM (active) | 7.4 µM (inactive) | 4.52 µM (inactive) | 2.4 µM (inactive) | 7.33 µM (inactive) | 2.19 µM (inactive) |
| CCOc1ccc(NC(=O)C(=O)C(/C(=N/N)C(=O)OC)c2nc3ccc([N+](=O)[O-])cc3nc2O)cc1 (stereo not given) | > 100 µM (inactive) | > 100 µM (inactive) | > 100 µM (inactive) | > 100 µM (inactive) | > 100 µM (inactive) | > 100 µM (inactive) | > 100 µM (inactive) | > 100 µM (inactive) | > 100 µM (inactive) | > 100 µM (inactive) | > 100 µM (inactive) | > 100 µM (inactive) | > 100 µM (inactive) | > 100 µM (inactive) | > 100 µM (inactive) | > 100 µM (inactive) | > 100 µM (inactive) | > 100 µM (inactive) | > 100 µM (inactive) | > 100 µM (inactive) |
| CNn1c(-c2ccccc2)n[nH]c1=O | > 100 µM (inactive) | > 100 µM (inactive) | > 100 µM (inactive) | > 100 µM (inactive) | > 100 µM (inactive) | > 100 µM (inactive) | > 100 µM (inactive) | > 100 µM (inactive) | > 100 µM (inactive) | > 100 µM (inactive) | > 100 µM (inactive) | > 100 µM (inactive) | > 100 µM (inactive) | > 100 µM (inactive) | > 100 µM (inactive) | > 100 µM (inactive) | > 100 µM (inactive) | > 100 µM (inactive) | > 100 µM (inactive) | > 100 µM (inactive) |
| CCCNc1[nH]c(C(=O)c2ccccc2)c(N)c1C(=S)Nc1ccccc1 | > 100 µM (inactive) | > 100 µM (inactive) | > 100 µM (inactive) | > 100 µM (inactive) | > 100 µM (inactive) | > 100 µM (inactive) | > 100 µM (inactive) | > 100 µM (inactive) | > 100 µM (inactive) | > 100 µM (inactive) | > 100 µM (inactive) | > 100 µM (inactive) | > 100 µM (inactive) | > 100 µM (inactive) | > 100 µM (inactive) | > 100 µM (inactive) | > 100 µM (inactive) | > 100 µM (inactive) | > 100 µM (inactive) | > 100 µM (inactive) |
| Cc1oc2c(c1C)S(=O)(=O)C(C#N)=C(N(C)C)N2 | > 100 µM (inactive) | > 100 µM (inactive) | > 100 µM (inactive) | > 100 µM (inactive) | > 100 µM (inactive) | > 100 µM (inactive) | > 100 µM (inactive) | > 100 µM (inactive) | > 100 µM (inactive) | > 100 µM (inactive) | > 100 µM (inactive) | > 100 µM (inactive) | > 100 µM (inactive) | > 100 µM (inactive) | > 100 µM (inactive) | > 100 µM (inactive) | > 100 µM (inactive) | > 100 µM (inactive) | > 100 µM (inactive) | > 100 µM (inactive) |
| NP(=O)(Oc1c2occc2cc2ccc(=O)oc12)N(CCCl)CCCl (stereo not given) | 62.2 µM (inactive) | > 100 µM (inactive) | > 100 µM (inactive) | > 100 µM (inactive) | > 100 µM (inactive) | > 100 µM (inactive) | > 100 µM (inactive) | > 100 µM (inactive) | > 100 µM (inactive) | 83.2 µM (inactive) | > 100 µM (inactive) | > 100 µM (inactive) | > 100 µM (inactive) | > 100 µM (inactive) | 28.8 µM (inactive) | > 100 µM (inactive) | > 100 µM (inactive) | > 100 µM (inactive) | > 100 µM (inactive) | > 100 µM (inactive) |
| O=C1C(Cl)=C(N2C(=O)CCC2=O)C(=O)c2ccccc21 | 31.8 µM (inactive) | 34 µM (inactive) | 23.1 µM (inactive) | 17.9 µM (inactive) | 37.9 µM (inactive) | 44.4 µM (inactive) | 39.8 µM (inactive) | 41.8 µM (inactive) | 53.2 µM (inactive) | 15.7 µM (inactive) | 39.8 µM (inactive) | 20.4 µM (inactive) | 17.8 µM (inactive) | 18.7 µM (inactive) | 50.7 µM (inactive) | 27.5 µM (inactive) | 22.5 µM (inactive) | > 100 µM (inactive) | 39.8 µM (inactive) | 29 µM (inactive) |
